Assay results: publication PMC10149936, “Cofilin activation in pancreatic acinar cells plays a pivotal convergent role for mediating CCK-stimulated enzyme secretion and growth” (Frontiers in Physiology, 2023)

Assays:
[1] = system: cofilin (pS3) in rat pancreatic acini; assay: cofilin activation (phospho-pS3 cofilin Western blot) in isolated rat pancreatic acini; type: cell-based; conditions: for time of return of cofilin phosphorylation to original basal level: CCK-8 0.3 or 100 nM; for time of return of cofilin phosphorylation to original basal level / phosphorylation levels of cofilin with CCK-8 or TPA after cofilin inhibitor: TPA 1 µM; for phosphorylation levels of cofilin with CCK-8 or TPA after cofilin inhibitor / inhibition of cofilin activation stimulated by CCK-8 or TPA: Cytochalasin D 10 µM or Paclitaxel 5 µM, 3 h; for phosphorylation levels of cofilin with CCK-8 or TPA after cofilin inhibitor: CCK-8 0.3 and 100 nM; for inhibition of cofilin activation stimulated by CCK-8 or TPA: CCK-8 0.3 or 100 nM 3 min, TPA 1 µM 5 min
Protocol: (§1) Pancreatic acini preparations were obtained by collagenase digestion as previously described ([Bissonnette et al., 1984]; [Sato et al., 1989]; [Ramos-Alvarez and Jensen, 2018]). After collagenase digestion, dispersed acini were preincubated with different inhibitors in standard incubation solution ([Ramos-Alvarez and Jensen, 2018]; [Ramos-Ãlvarez et al., 2020]) for 3 h at 37°C under conditions specific for PKD/PKC, Src, PI3K, MAPKs, SSH1, LIMK, cofilin, other phosphatases and PAK4 inhibitors, as described previously ([Ramos-Alvarez and Jensen, 2018]; [Ramos-Ãlvarez et al., 2020]). Isolated acini and CCK1-R/Panc-1 cells (M&M 2.2.1) were also preincubated with two SSH1 inhibitors, D3 (25 μM, 1 h) ([Li et al., 2015]) or SE (50 μM, 3 h for acini; 24 h for CCK1-R/Panc-1 cells) ([Lee et al., 2017]). After preincubation, 1 mL aliquots of dispersed acini were incubated at 37°C for 3–15 min with CCK-8 (0.3 nM or 100 nM), for 5–15 min with TPA (1 µM) or without stimulants, used as control. Cells were lysed in lysis buffer (50 mM Tris/HCl pH 7.5, 150 mM NaCl, 1% Triton X-100, 1% deoxycholate, 0.1% sodium azide, 1 mM EGTA, 0.4 mM EDTA, 0.2 mM sodium orthovanadate, 1 mM PMSF, and one protease inhibitor tablet per 10 mL). After sonication, lysates were centrifuged at 10,000×g for 15 min at 4°C and protein concentration was measured using the Bio-Rad protein assay reagent. Finally, cells were processed as below for Western blotting.
Both concentrations of CCK-8 were used because CCK-8 is reported to have different responses with physiological and supraphysiological concentrations contributing to physiological and pathophysiological processes such as pancreatitis ([Dufresne et al., 2006]).
Western blotting and immunoprecipitation were performed as described previously ([Ramos-Alvarez and Jensen, 2018]). Whole cell lysates were subjected to SDS-PAGE using 4%–20% Tris–Glycine gels. […] Finally, membranes were then washed again twice in blocking buffer for 4 min, twice in washing buffer for 4 min, incubated for 4 min with chemiluminescence detection reagents. The intensity of the protein bands was measured using GeneTools software from Syngene, which were assessed in the linear detection range.
All experiments were performed at least 3 times. Data are presented as mean ± SEM and were analyzed with the non-parametric Kruskal–Wallis analysis (data was not normally distributed) and the Dunn’s multiple comparison test using the GraphPad Prism 8.0 software. P values < 0.05 were considered significant.
(A) Isolated pancreatic acini were incubated in the absence or presence of CCK-8 (100 nM), carbachol (1 μM), bombesin (1 nM), secretin (1 nM) or VIP (1 nM) for 1 min and then lysed. (B) Isolated pancreatic acini were incubated in the absence or presence of CCK-8 and CCK-JMV (at the indicate concentrations) for 3 min and then lysed. Western blots were analyzed using anti-pS3 cofilin, which mediates the activation state of cofilin. Bands were visualized using chemiluminescence and quantified by densitometry.

pancreatic acini = assay: amylase release from pancreatic acini (Phadebas); type: cell-based, rat; conditions: for increase in amylase release / inhibition of amylase secretion stimulated by CCK-8 and TPA: 30 min; for inhibition of amylase secretion stimulated by CCK-8 and TPA / effect on basal amylase release: Cytochalasin D 10 µM or Paclitaxel 5 µM; for inhibition of amylase secretion stimulated by CCK-8 and TPA: 4 h, CCK-8 0.3 and 100 nM; for effect on basal amylase release: pancreatic acini (Figure 13A)
Protocol: as §1, with “After collagenase digestion, dispersed acini were preincubated with different inhibitors in standard incubation solution ([Ramos-Alvarez and Jensen, 2018]; [Ramos-Ãlvarez et al., 2020]) for 3 h at 37°C under conditions specific for PKD/PKC, Src, PI3K, MAPKs, SSH1, LIMK, cofilin, other phosphatases and PAK4 inhibitors, as described previously ([Ramos-Alvarez and Jensen, 2018]; [Ramos-Ãlvarez et al., 2020]).” left out
Amylase release was performed as described previously ([Sato et al., 1989]; [Ramos-Alvarez and Jensen, 2018]). Amylase activity was determined after 30 min incubation using the Phadebas reagent and was expressed as percentage of the total cellular amylase released into the extracellular medium during the incubation ([Ramos-Alvarez and Jensen, 2018]).
FIGURE 13 Effect of two cofilin inhibitors, Cytochalasin D or Paclitaxel, (A, B), or Cofilin siRNA (C), on the ability of CCK/TPA/A71378-stimulated amylase release form pancreatic acini (A) or AR42J cells (B, C). In (A, B) pancreatic acini and AR42J cells were incubated in the absence or presence of Cytochalasin D (10 µM) or Paclitaxel (5 µM) for 4 h and then incubated with no additions (control) or CCK-8 (0.03, 0.3, 1 and 100 nM), TPA (1 µM) or A71378 (0.03 and 1 nM) for 30 min and then lysed. In (B, C) AR42J cells were treated with Dexamethasone (100 nM) for 72 h, and in (C) AR42J cells were transfected with siRNA Non-targeting Control and siRNA against cofilin for 48 h, and then incubated with no addition (control) or CCK-8 (0.03 and 1 nM) and A71378 (0.03 and 1 nM) for 30 min. Amylase release, expressed as percent of cellular total amylase secreted, was determined after 30 min incubation. Means ± S.E. of at least 3 independent experiments. N.S., No significant.

Compound | time of return of cofilin phosphorylation to original basal level [1] | phosphorylation levels of cofilin with CCK-8 or TPA after cofilin inhibitor [1] | inhibition of cofilin activation stimulated by CCK-8 or TPA [1] | inhibition of amylase secretion stimulated by CCK-8 and TPA (pancreatic acini; TPA 1 µM) | effect on basal amylase release (pancreatic acini) | other results
CCCCCCCCCCCCCC(=O)O[C@@H]1[C@@H](C)[C@@]2(O)[C@@H](C=C(CO)C[C@]3(O)C(=O)C(C)=C[C@@H]23)[C@H]2C(C)(C)[C@]12OC(C)=O [TPA, 12-O-tetradecanoylphobol-13-acetate] | 60 min |  |  |  |  | increase in amylase release (pancreatic acini; TPA 1 µM): 278%
CC(=O)O[C@H]1C(=O)[C@@]2(C)[C@H]([C@H](OC(=O)c3ccccc3)[C@]3(O)C[C@H](OC(=O)[C@H](O)[C@@H](NC(=O)c4ccccc4)c4ccccc4)C(C)=C1C3(C)C)[C@]1(OC(C)=O)CO[C@@H]1C[C@@H]2O [Paclitaxel] |  | significant increase in phosphorylation levels of cofilin | completely inhibited | completely inhibited | Neither of these two cofilin inhibitors influenced basal amylase release | 
C=C1[C@@H](C)[C@H]2[C@H](Cc3ccccc3)NC(=O)[C@]23[C@H](OC(C)=O)/C=C/[C@@](C)(O)C(=O)[C@@H](C)C/C=C/[C@H]3[C@@H]1O [Cytochalasin D] |  | significant increase in phosphorylation levels of cofilin | completely inhibited | completely inhibited | Neither of these two cofilin inhibitors influenced basal amylase release | 
COOH-terminal octapeptide of cholecystokinin [CCK-8] | 60 min |  |  |  |  | effect on cofilin phosphorylation (pS3) ([1]; 1 min, CCK-8 100 nM, carbachol 1 μM, bombesin 1 nM, secretin 1 nM or VIP 1 nM, n at least 3): rapidly decreased cofilin phosphorylation; concentration with detectible decrease in cofilin phosphorylation ([1]; 3 min): 1 pM; maximal dephosphorylation (i.e., activation) of cofilin ([1]; at 1 nM, 3 min): 62%; share of CCK-8 stimulation of cofilin activation mediated by the high-affinity state CCK1 receptor ([1]; from comparison with CCK-JMV): 58%; share of CCK-8 stimulation of cofilin activation mediated by the low affinity CCK1 receptor state ([1]; from comparison with CCK-JMV): 42%; EC50 ([1]; pS3 cofilin, 3 min incubation, at least 3 experiments, mean ± SEM, read-out: half-maximal effect (EC50) for decrease of cofilin phosphorylation): 1.8 ± 0.1 pM; increase in amylase release (pancreatic acini; CCK-8 0.3 nM): 207%
